Assay results from patent US7101853B2 (Amylin Pharmaceuticals, Inc., priority 1997, dated 2006).
pIC50: −log10 of the molar value. Where two headings read alike, the source gives them in different places. Values belong to the compound of their own block, whether it stands above or below them. Where no end group is shown, it is not given here.

How the values were obtained:
treated test animals = assay: Amylin activity in vivo in treated test animals
[1] = in rats, in rabbits, and in humans with Paget's disease; cited from earlier work
[2] = test system: ethanol- or indomethacin-induced gastritis in rats; conditions: cited from earlier work
[3] = target: amylin receptor (membrane-bound, rat basal forebrain membranes containing the nucleus accumbens and surrounding regions) (rat); assay: competition with 125I-rat amylin on rat basal forebrain membranes
[4] = test system: Harlan Sprague Dawley (non-diabetic) rats; assay: Phenol red gastric emptying assay, normal rats; type: in vivo, rat; conditions: 1 μg s.c. 5 minutes before gavage, normal HSD rats
Text: (§1) Briefly, conscious rats received by gavage. […] Twenty minutes after gavage, rats were anesthetized using 5% halothane, the stomach exposed and clamped at the pyloric and lower esophageal sphincters using artery forceps, removed and opened into an alkaline solution which was made up to a fixed volume. Stomach content was derived from the intensity of the phenol red in the alkaline solution, measured by absorbance at a wavelength of 560 nm. In most experiments, the stomach was clear. In other experiments, particulate gastric contents were centrifuged to clear the solution for absorbance measurements. Where the diluted gastric contents remained turbid, the spectroscopic absorbance due to phenol red was derived as the difference between that present in alkaline vs acetified diluent. […] The quantity of phenol red that could be recovered from the upper gastrointestinal tact within […] of gavage was 89±4%; dye which appeared to bind irrecoverably to the gut luminal surface may have accounted for the balance. To compensate for this small loss, percent of stomach contents remaining after 20 minutes were expressed as a fraction of the gastric contents recovered from control rats sacrificed immediately after gavage in the same experiment. Percent gastric emptying contents remaining=(absorbance at 20 min)/(absorbance at 0 min). […]

diabetic BB rats = assay: Phenol red gastric emptying assay, diabetic rats; type: in vivo, rat; conditions: 10 μg s.c. 5 minutes before gavage
Text: as §1

ethanol gavaged rat = assay: Gastroprotection: ethanol-induced mucosal damage in the ethanol gavaged rat; type: in vivo
Text: The gastroprotective properties of amylin in an animal model for gastritis—the ethanol gavaged rat—are described in this example.
Mucosal damage was scored between 0 (no damage) and 5 (100% of stomach covered by hyperemia and ulceration) by investigators blinded to the treatment. […] This prediction was obtained by applying the published relationship between injected subcutaneous dose and peak plasma concentration in rats. Young, A. A. et al., Drug Devel. Res. 37:231-48 (1996). […] Mimicking this physiological effect is unlikely to result in unwanted side effects, as is often the case with administration of unphysiological xenobiotics.

[5] = test system: Harlan Sprague Dawley rats; assay: Tritiated glucose gastric emptying assay; type: in vivo, rat
Experimental: Conscious, non-fasted, Harlan Sprague Dawley rats were restrained by the tail, the tip of which was anesthetized using 2% lidocaine. Tritium in plasma separated from tail blood collected 0, 15, 30, 60, 90 and 120 minutes after gavage was detected in a beta counter.

Compound: CC[C@H](C)[C@H](NC(=O)[C@@H]1CCCN1C(=O)CNC(=O)[C@H](Cc1ccccc1)NC(=O)[C@H](CC(N)=O)NC(=O)[C@H](CC(N)=O)NC(=O)[C@H](CO)NC(=O)[C@H](CO)NC(=O)[C@H](Cc1c[nH]cn1)NC(=O)[C@@H](NC(=O)[C@H](CC(C)C)NC(=O)[C@H](Cc1ccccc1)NC(=O)[C@H](CC(N)=O)NC(=O)[C@H](C)NC(=O)[C@H](CC(C)C)NC(=O)[C@H](CCCNC(=N)N)NC(=O)[C@H](CCC(N)=O)NC(=O)[C@@H](NC(=O)[C@H](C)NC(=O)[C@@H]1CSSC[C@H](NC(=O)[C@@H](N)CCCCN)C(=O)N[C@@H](CC(N)=O)C(=O)N[C@@H]([C@@H](C)O)C(=O)N[C@@H](C)C(=O)N[C@@H]([C@@H](C)O)C(=O)N1)[C@@H](C)O)C(C)C)C(=O)N[C@@H](CC(C)C)C(=O)N1CCC[C@H]1C(=O)N1CCC[C@H]1C(=O)N[C@H](C(=O)N[C@@H](CC(N)=O)C(=O)N[C@H](C(=O)NCC(=O)N[C@@H](CO)C(=O)N[C@@H](CC(N)=O)C(=O)N[C@H](C(=O)N[C@@H](Cc1ccc(O)cc1)C(N)=O)[C@@H](C)O)C(C)C)[C@@H](C)O [^25,28,29Pro-h-Amylin]
Amylin activity in vivo (treated test animals): show amylin activity in vivo

Compound: amylin (KCNTATCATQRLANFLVHSSNNFGAILSSTNVGSNTY; not fully specified (C-terminus, bridges); cysteine pairing not given here; UniProt P10997 34-70, looked up) [amylin as named in the cited literature, species form not specified at the place]
Lowering of plasma calcium [1]: up to 20%
Effect on ethanol- or indomethacin-induced gastritis ([2]; intracerebroventricular injections): did have an effect
Effect on ethanol- or indomethacin-induced gastritis ([2]; subcutaneous injections): no effect

Compound: des-^1Lys-h-amylin (CNTATCATQRLANFLVHSSNNFGAILSSTNVGSNTY)
Amylin activity in vivo (treated test animals): show amylin activity in vivo

pIC50 [3]: 10.30
Compound: purified human amylin (from UniProt P10997 34-70) (peptide)

Compound: rat amylin
Suppression of gastric emptying [4]: complete
Suppression of gastric emptying (diabetic BB rats): complete
Mucosal damage, percent of scores in the saline-treated controls (ethanol gavaged rat; 0.001 μg s.c. 5 min before gavage of 1 ml absolute ethanol): 95.3±15.2%
Mucosal damage, percent of scores in the saline-treated controls (ethanol gavaged rat; 0.01 μg s.c. 5 min before gavage of 1 ml absolute ethanol): 76.6±13.8%
Mucosal damage, percent of scores in the saline-treated controls (ethanol gavaged rat; 0.1 μg s.c. 5 min before gavage of 1 ml absolute ethanol): 70.1±10.7%
Mucosal damage, percent of scores in the saline-treated controls (ethanol gavaged rat; 0.3 μg s.c. 5 min before gavage of 1 ml absolute ethanol): 33.9±7.7%
Mucosal damage, percent of scores in the saline-treated controls (ethanol gavaged rat; 1 μg s.c. 5 min before gavage of 1 ml absolute ethanol): 59.6±5.8%
Mucosal damage, percent of scores in the saline-treated controls (ethanol gavaged rat; 3 μg s.c. 5 min before gavage of 1 ml absolute ethanol): 35.6±11.5%
Mucosal damage, percent of scores in the saline-treated controls (ethanol gavaged rat; 10 μg s.c. 5 min before gavage of 1 ml absolute ethanol): 32.9±8.3%
Predicted increase in circulating amylin concentrations at the 50% gastroprotective dose (ethanol gavaged rat; […] s.c., from published relationship between s.c. dose and peak plasma concentration in rats): 1.8 ± 0.4 pM
Reduction of the injury score (ethanol gavaged rat; as observed with the 10 μg dose): up to 67%
ED50 for the gastroprotective effect (ethanol gavaged rat; s.c., ±0.4 log units): 0.036 μg/rat
Effect on absorption of the label (plasma tritium) ([5]; s.c. 0.1-100 μg 1 minute before gavage): dose-dependently slowed and/or delayed the absorption of the label
ED50 derived from the logistic fit (plasma tritium AUC over 30 minutes vs dose) ([5]; s.c. 1 minute before gavage of tritiated glucose): 0.35 μg
